Test results reported in US10543159B2, “Hair papilla cell activator” (Ezaki Glico Co., Ltd., priority 2014, dated 2020).

Columns and labels:
[1] = test system: human follicle dermal papilla cells; assay: Follicle dermal papilla cell proliferation, Cell Counting Kit-F cell count (Example 2); assay type: cell-based; details: concentration series of Table 1A, 3 days
Description: A strain (Lot. 3092504.12) sold by PromoCell (Germany) was used as human follicle dermal papilla cells. The cells were cultured in a CO2 incubator at 37° C., using a special medium for follicle dermal papilla cells (PromoCell), unless otherwise indicated. Cell subculturing was performed as follows: cells were seeded at 5000 to 10000 cells/cm^2 in an uncoated dish, and when the cells reached subconfluent, they were treated with trypsin-EDTA (0.03%) and detached, and then re-seeded. […] The medium was replaced about once every 3 days.
1. The procedures (1) and (3) to (5) in Example 1 were performed in the same manner as described above. Solutions of the compositions shown in the following table were prepared in a concentration series starting from a 10% (w/v) aqueous solution of POs-Ca (R), a 12.9% (w/v) aqueous solution of G1P-Ca, a 1.84% (w/v) aqueous solution of CaCl2.2H2O, or a 10% (w/v) aqueous solution of POs-Na.
2. In place of the conditions ((6), (7) and (8)) in Example 1, Cell Counting Kit-F (Dojindo Molecular Technologies, Inc.) was added to each well in accordance with the manual, and the number of cells was counted.

[2] = test system: CSPG4; assay: Quantitative PCR gene expression in follicle dermal papilla cells: CSPG4; assay type: cell-based, human; details: Example 3: 0.25% POs-Ca (R) or CaCl2 of equivalent calcium, DMEM, 37° C., 5 hours; Dunnett, n=6
Description: (§2) (1) 500 μl of a special medium in which 4×10^4 cells/ml of follicle dermal papilla cells were suspended was dispensed into a type I collagen-coated 24-well cell culture plate (Corning), and cultured at a cell density of 1.0×10^4 cells/cm^2 at 37° C. for 42 hours. (2) (a) Water (control), (b) a 2.5% (w/v) aqueous solution of POs-Ca (R), and (c) a 0.457% aqueous solution of CaCl2 (having an equivalent amount of calcium to that of (b)) were prepared. Each of the solutions (a) to (c) was mixed with DMEM high glucose (Sigma, USA) at a ratio of 1:9. […]
(§3) (6) 0.5 μl of each of cDNA solutions diluted 2-fold with water, 1 μl of a solution containing 4 μM of each of primers 1 and 2 for each of the genes shown in Table 2, 5 μl of SYBR Premix Ex Taq II (Takara), and 3.5 μl of water were added, and quantitative PCR was performed on each of the genes. […] Fluorescence intensity after each cycle was measured.
(§4) (7) Using PGK1 and GAPDH as reference genes, a comparative analysis of expression levels was performed with the analysis software (Bio-Rad CFX Manager 3.0) included in CFX96Touch. Relative expression levels were calculated under the default conditions of the software.
(§5) (8) The average value of calculated expression levels was determined for the six samples derived from the cells treated under the respective conditions, and defined as the expression level relative to the control.

[3] = test system: tenascin C; assay: Quantitative PCR gene expression in follicle dermal papilla cells: tenascin C; assay type: cell-based, human; details: Example 3: 0.25% POs-Ca (R) or CaCl2 of equivalent calcium, DMEM, 37° C., 5 hours; Dunnett, n=6
Description: as §2, §3, §4, §5

[4] = test system: fibronectin; assay: Quantitative PCR gene expression in follicle dermal papilla cells: fibronectin; assay type: cell-based, human; details: Example 3: 0.25% POs-Ca (R) or CaCl2 of equivalent calcium, DMEM, 37° C., 5 hours; Dunnett, n=6
Description: as §2, §3, §4, §5

[5] = test system: VEGF; assay: Expression rate of VEGF among acidic saccharide salts, quantitative PCR (Example 6); assay type: cell-based, human; details: Example 6: solutions (b)-(h) of b288 mixed 1:9 with DMEM, GAPDH reference, mean of 4 PCR assays, dihydrate
Description: (§1) (1) 500 μl of a special medium in which 2×10^4 cells/ml of follicle dermal papilla cells were suspended was dispensed into a type I collagen-coated 24-well cell culture plate (Corning), and cultured at a cell density of 5×10^3 cells/cm^2 at 37° C. for 72 hours. […] Oji Cornstarch Co., Ltd.), (f) a 2.5% (w/v) aqueous solution of a phosphorylated oligosaccharide magnesium salt (POs-Mg; […] (3) Each of the solutions (a) to (c) was mixed with DMEM high glucose (Sigma, USA) at a ratio of 1:9. (4) Following the procedures (4) to (6) in Example 2, mRNA was extracted from the cells, cDNA was prepared, and then the expression levels of the VEGF, FGF-7, and GAPDH genes were quantified by quantitative PCR. (7) Using GAPDH as a reference gene, a comparative analysis of expression levels was performed with the analysis software (Bio-Rad CFX Manager 3.0) included in CFX96Touch. The expression levels were calculated under the default conditions of the software.

[6] = test system: FGF-7; assay: Expression rate of FGF-7 among acidic saccharide salts, quantitative PCR (Example 6); assay type: cell-based, human; details: Example 6: solutions (b)-(h) of b288 mixed 1:9 with DMEM, GAPDH reference, mean of 4 PCR assays, dihydrate
Description: as §1

SMILES: O.O.[Ca+2].[Cl-].[Cl-] [CaCl2, calcium chloride dihydrate]
- number of cells compared to that without addition [1]: not observed
- expression of CSPG4 gene compared to control [2]: significant increases in the expression of genes were not observed
- expression of tenascin C gene compared to control [3]: significant increases in the expression of genes were not observed
- expression of fibronectin gene compared to control [4]: significantly decreased
- VEGF, relative values of the expression levels based on the control as 1 [5]: 0.80
- VEGF, relative values of the expression levels based on the control as 1 ([5]; listed as calcium chloride): either comparable to or below the control
- FGF7, relative values of the expression levels based on the control as 1 [6]: 1.02
- FGF7, relative values of the expression levels based on the control as 1 ([6]; listed as calcium chloride): either comparable to or below the control
